# Experimental data from patent publication US20130131111A1, “NMN MODULATORS FOR THE TREATMENT OF NEURODEGENERATIVE DISORDERS” (Babraham Institute, priority 2010, published 2013).
# How the values were obtained:
# Format in all cases: cell-based, mouse
# [1] = tested on: neurites of SCG neurons; assay: Vincristine-treated neurites of SCG explant cultures
# Method: (§1) Explants were placed into L15 (Leibovitz) medium (Invitrogen), cleaned from other tissues, cut in half and six half explants were placed in the centre of 3.5 cm tissue culture dishes pre-coated with poly-L-lysine (20 μg/ml for 2 h; Sigma) and laminin (20 μg/ml for 2 h; Sigma). Explants were cultured in DMEM containing 4500 mg/L glucose and 110 mg/L sodium pyruvate (Sigma), 2 mM glutamine, 1% penicillin/streptomycin, 1/50 B27 serum supplement and 100 ng/ml 7S NGF (all from Invitrogen) and 4 μM aphidicolin (Sigma) to block proliferation of non-neuronal cells. Neurites were allowed to extend for 7 days in all cultures before any treatment. After this time, neurites were separated from their cell bodies using a scalpel. […] Bright-field images were captured on an Olympus IX81 inverted microscope using a Soft Imaging Systems F-View camera linked to a PC running the Analysis software. Images of the same field of neurites were captured just after or at regular intervals up to 48-72 hours after cut injuries.
# This experiment was performed in an analogous manner to that described in Examples 2 and 3, however the neurites, instead of being separated by the cell body with a cut, were treated with the neurotoxic chemotherapy drug vincristine. […] The distal part of the neurites was imaged immediately and at 24, 48 and 72 hours after adding the drugs.
# [2] = tested on: intracellular NAD(P)^+ levels in SCG cultures; assay: NAD(P)+ levels in SCG explant cultures; settings: 100 nM FK866 for 8 h or 24 h; FIG. 2
# Method: as §1
# At this time, the explants were collected in 100 μl H2O for NAD(P)^+ determination as described in Billington et al. (2008) J Biol Chem 283(10), 6367-6374.
# The results of this analysis can be seen in FIG. 2. […] Therefore, the reduced intracellular levels of NMN^+ result in a reduction in the turnover of NMN^+ to NAD^+ by isoforms of Nmnat.
# [3] = tested on: cut neurites of SCG neurons; assay: Cut neurites of SCG explant cultures (Wallerian degeneration)
# Method: as §1, with “injuries. […] In this experiment, SCG neurons were cultured for 7 days as described in the methodology, then the neurites were separated from the cell bodies by a scalpel, and the distal part of the neurites with respect to the cut was imaged immediately after the cut or 24 hours after the cut.” for “injuries.”
smiles,measurement,setting,value
"O=C(/C=C/c1cccnc1)NCCCCC1CCN(C(=O)c2ccccc2)CC1 [FK866, N-[4-(1-benzoyl-4-piperidinyl)butyl]-3-(3-pyridinyl)-2E-propenamide]",effect on vincristine-induced neurite degeneration,"[1]; 0.02 μM vincristine plus 100 nM FK866, up to 72 hours, FIG. 5",protection
same,effect on NAD^+ levels,[2],depletion of NAD^+
same,neurite survival increase,"[3]; FK866 100 nM, cut neurites, estimated",increased by four fold
same,effect on injured (cut) neurites,"[3]; FK866 100 nM, imaged 24 hours after cut, FIG. 3",preserving injured neurites in primary culture even if added shortly after cutting
same,neuroprotective effect on cell bodies,[3]; data not shown,does not extend to cell bodies
"NC(=O)c1ccc[n+]([C@@H]2O[C@H](COP(=O)([O-])O)[C@@H](O)[C@H]2O)c1 [NMN, nicotinamide mononucleotide]",effect of adding NMN with FK866 on vincristine-treated neurites,"[1]; 0.02 μM vincristine plus 100 nM FK866 and 1 mM NMN, FIG. 5",protective effect is reverted
same,effect of adding NMN^+ with FK866 on cut neurites,"[3]; NMN^+ in combination with FK866, FIG. 4",reverts the protective effect of FK866
"CC[C@]1(O)C[C@H]2CN(CCc3c([nH]c4ccccc34)[C@@](C(=O)OC)(c3cc4c(cc3OC)N(C=O)[C@H]3[C@@](O)(C(=O)OC)[C@H](OC(C)=O)[C@]5(CC)C=CCN6CC[C@]43[C@@H]65)C2)C1 [Vincristine, vincristine]",toxic effect on neurites,[1]; 0.02 μM vincristine alone,progressive distal-to-proximal degeneration of neurites
